# Results published in ChEMBL document CHEMBL1201862, “PubChem BioAssay data set” (2004).
# Calls of active or inactive are those of the source.
# Legend:
# [1] = Trypanosoma cruzi growth suppression in host cells – NIH3T3 host cells, beta-gal luminescence, confirmation (AID 2044); assay type: functional, cell-based;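 note: intracellular parasites grown in NIH/3T3 mouse fibroblasts as host cells; luminescent beta-galactosidase reporter signal from transgenic T. cruzi replicating inside host cells; inhibitors lower the luminescence signal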
# [2] = NIH3T3 cell viability loss – ATP luminescence, mouse fibroblasts, counter-screen, dose response (AID 2010); assay type: functional, cell-based;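 note: cells exposed to compound for about 90 hours before reading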
# [3] = target: Beta-2 adrenergic receptor (Homo sapiens, UniProt P07550); test: ADRB2 activation measured by internalization – cell-based, FAP fluorogen, flow cytometry, cherry pick 1, dose response (AID 588763); assay type: functional
# [4] = target: Dual specificity tyrosine-phosphorylation-regulated kinase 1A (Rattus norvegicus, UniProt Q63470); assay type: biochemical, Homo sapiens
# [5] = target: Dual specificity protein kinase CLK1 (Homo sapiens, UniProt P49759); test: inhibition of human CLK1 activity – biochemical, cherry-picked samples, selectivity assay for Dyrk1A inhibitor project, dose response (AID 588811)
# Streptokinase A = target: T1, Streptokinase A (Streptococcus pyogenes serotype M1, UniProt P10520); test: viability-normalized secreted streptokinase activity reduction – plasminogen activation absorbance, OD405, dose response (AID 1914); assay type: functional, Streptococcus pyogenes M1 GAS;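 note: secreted streptokinase activity via plasminogen activation per viability signal from cell pellet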
# T1 sequence (P10520 whole entry): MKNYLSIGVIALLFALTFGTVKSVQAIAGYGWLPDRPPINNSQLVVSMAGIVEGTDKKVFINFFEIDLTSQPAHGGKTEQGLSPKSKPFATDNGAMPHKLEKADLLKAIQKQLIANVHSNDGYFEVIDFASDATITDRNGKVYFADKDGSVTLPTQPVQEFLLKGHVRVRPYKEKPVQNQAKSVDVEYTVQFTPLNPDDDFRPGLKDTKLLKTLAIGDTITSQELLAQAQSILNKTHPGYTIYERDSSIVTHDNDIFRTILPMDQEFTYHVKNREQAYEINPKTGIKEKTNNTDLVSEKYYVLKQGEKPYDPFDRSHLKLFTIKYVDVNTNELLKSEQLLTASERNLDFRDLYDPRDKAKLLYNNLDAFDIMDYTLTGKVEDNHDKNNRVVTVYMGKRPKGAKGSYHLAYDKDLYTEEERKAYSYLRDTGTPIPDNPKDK
# Streptococcus = test: GAS UMAA2166 growth inhibition – luminescence, BacTiterGlo, counter-screen for streptokinase expression inhibitor project, dose response (AID 1915); assay type: functional, organism-based; settings: Streptococcus;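 note: potency for reduction of bacterial viability or growth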
# [6] = system: Streptococcus sp. 'group A'; test: Streptococcus pyogenes SK(-)GAS viability under kanamycin – luminescence, BacTiterGlo, confirmation, counter-screen for streptokinase expression inhibitor project, dose response (AID 1900); assay type: functional, organism-based; settings: Streptococcus sp. 'group A'
# HeLa = test: ATP-based viability loss in HeLa cells – cell-based, CellTiter-Glo luminescence, cherry-pick samples, cytotoxicity control for MITF activator project, dose response (AID 540259); assay type: functional; settings: Homo sapiens
# [7] = target: T2, Sentrin-specific protease 8 (Homo sapiens, UniProt Q96LD8); test: inhibition of human SENP8 cleavage activity – biochemical, luminescence, SAR follow-up (AID 504501); assay type: functional
# T2 sequence (Q96LD8 whole entry): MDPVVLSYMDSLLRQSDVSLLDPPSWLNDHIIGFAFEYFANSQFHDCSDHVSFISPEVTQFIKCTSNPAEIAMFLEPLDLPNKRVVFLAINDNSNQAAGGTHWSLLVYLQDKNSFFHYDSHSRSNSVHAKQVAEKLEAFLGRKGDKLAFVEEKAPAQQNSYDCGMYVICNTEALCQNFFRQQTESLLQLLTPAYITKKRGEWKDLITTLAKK
# Caspase-3 = target: T3, Caspase-3 (Homo sapiens, UniProt P42574); test: SAR Analysis of small molecule inhibitors of Sentrin-specific proteases (SENPs) using a Caspase-3 Selectivity assay. [Related pubchem assays (depositor defined):AID2540, AID2599, AID434973, AID489001]; assay type: functional
# T3 sequence (P42574 whole entry): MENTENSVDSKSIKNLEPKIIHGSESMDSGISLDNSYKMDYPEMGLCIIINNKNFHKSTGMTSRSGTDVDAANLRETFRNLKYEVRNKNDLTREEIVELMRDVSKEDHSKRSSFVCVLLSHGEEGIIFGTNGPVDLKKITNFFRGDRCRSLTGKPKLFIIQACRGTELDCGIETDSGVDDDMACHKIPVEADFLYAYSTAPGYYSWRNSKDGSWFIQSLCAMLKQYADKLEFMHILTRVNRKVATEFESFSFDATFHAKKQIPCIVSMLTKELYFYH
# [8] = target: T4, Sentrin-specific protease 6 (Homo sapiens, UniProt Q9GZR1); test: SAR Analysis of small molecule inhibitors of Sentrin-specific protease 6 (SENP6) using a Luminescent assay. [Related pubchem assays (depositor defined):AID2582, AID2599]; assay type: functional
# T4 sequence (Q9GZR1 whole entry): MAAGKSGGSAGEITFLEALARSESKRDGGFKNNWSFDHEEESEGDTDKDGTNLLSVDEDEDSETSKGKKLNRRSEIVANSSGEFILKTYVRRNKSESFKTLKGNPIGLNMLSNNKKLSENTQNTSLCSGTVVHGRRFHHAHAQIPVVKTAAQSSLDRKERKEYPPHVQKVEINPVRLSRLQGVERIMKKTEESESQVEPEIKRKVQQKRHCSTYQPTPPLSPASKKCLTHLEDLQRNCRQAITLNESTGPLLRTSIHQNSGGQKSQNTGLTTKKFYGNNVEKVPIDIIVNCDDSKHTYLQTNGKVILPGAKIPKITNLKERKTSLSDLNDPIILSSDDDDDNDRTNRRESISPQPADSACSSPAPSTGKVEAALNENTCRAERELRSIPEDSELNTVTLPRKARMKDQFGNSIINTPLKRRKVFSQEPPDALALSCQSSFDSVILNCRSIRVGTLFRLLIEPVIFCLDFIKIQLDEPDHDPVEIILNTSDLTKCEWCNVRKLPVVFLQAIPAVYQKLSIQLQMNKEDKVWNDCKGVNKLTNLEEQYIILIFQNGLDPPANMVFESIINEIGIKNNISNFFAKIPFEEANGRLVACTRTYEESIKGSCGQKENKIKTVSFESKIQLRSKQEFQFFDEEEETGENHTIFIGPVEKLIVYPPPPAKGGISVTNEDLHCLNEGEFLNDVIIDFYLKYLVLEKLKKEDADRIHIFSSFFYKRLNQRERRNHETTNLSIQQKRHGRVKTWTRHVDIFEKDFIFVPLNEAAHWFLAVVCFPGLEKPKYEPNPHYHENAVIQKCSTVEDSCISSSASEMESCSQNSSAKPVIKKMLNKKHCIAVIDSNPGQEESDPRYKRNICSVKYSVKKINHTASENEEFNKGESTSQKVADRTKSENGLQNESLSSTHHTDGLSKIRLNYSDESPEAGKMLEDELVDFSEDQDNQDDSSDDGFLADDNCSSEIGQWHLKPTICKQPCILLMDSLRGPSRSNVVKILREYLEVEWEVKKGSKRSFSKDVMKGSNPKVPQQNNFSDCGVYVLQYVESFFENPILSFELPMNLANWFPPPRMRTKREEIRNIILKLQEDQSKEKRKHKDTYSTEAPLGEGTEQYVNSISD
# CAAX prenyl protease 2 [9] = target: T5, CAAX prenyl protease 2 (Homo sapiens, UniProt Q9Y256); test: inhibition of Ras-converting CAAX protease Rce1 – biochemical, yeast membranes, quenched-peptide fluorescence, cherry-pick, dose response (AID 588849)
# T5 sequence (Q9Y256 whole entry): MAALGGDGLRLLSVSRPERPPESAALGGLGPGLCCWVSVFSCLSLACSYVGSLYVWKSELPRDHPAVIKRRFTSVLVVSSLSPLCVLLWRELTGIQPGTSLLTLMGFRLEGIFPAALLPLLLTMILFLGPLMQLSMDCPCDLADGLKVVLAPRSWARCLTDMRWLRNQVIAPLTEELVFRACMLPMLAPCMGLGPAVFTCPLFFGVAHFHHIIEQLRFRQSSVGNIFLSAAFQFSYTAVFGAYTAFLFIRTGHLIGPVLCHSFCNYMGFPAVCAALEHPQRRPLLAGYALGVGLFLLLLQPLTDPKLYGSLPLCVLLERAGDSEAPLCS
# CAAX prenyl protease 2 [10] = target: T6, CAAX prenyl protease 2 (Saccharomyces cerevisiae S288c, UniProt Q03530); assay type: biochemical
# T6 sequence (Q03530 whole entry): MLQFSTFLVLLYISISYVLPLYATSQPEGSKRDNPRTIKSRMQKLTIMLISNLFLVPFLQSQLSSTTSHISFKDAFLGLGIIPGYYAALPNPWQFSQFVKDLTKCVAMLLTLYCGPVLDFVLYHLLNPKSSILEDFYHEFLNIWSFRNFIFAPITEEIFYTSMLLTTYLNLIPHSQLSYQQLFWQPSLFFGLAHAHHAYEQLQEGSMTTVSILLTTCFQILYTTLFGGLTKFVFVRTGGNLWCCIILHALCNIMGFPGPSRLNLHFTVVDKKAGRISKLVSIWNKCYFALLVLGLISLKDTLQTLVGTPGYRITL
# Vero [11] = test: viability of Vero cells under compound – cytotoxicity control for flavivirus capping enzyme inhibitors (AID 588742); assay type: functional; settings: Chlorocebus sabaeus
# BJ [12] = test: cells; assay type: functional, cell-based; settings: Homo sapiens
# BJ [13] = test: BJ-TERT-LT-ST fibroblast viability loss – cell-based, RAS-independent, luminescence, dose response (AID 1935); assay type: functional; settings: Homo sapiens;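 note: BJ fibroblasts immortalized with TERT plus LT and ST oncogenes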
# BJ [14] = test: BJ-TERT fibroblast viability loss – cell-based, RAS-independent, luminescence, dose response (AID 1933); assay type: functional; settings: Homo sapiens
# [15] = DRD fibroblast viability loss – cell-based, non-viral oncogenic, luminescence, dose response (AID 1934); assay type: functional; settings: Homo sapiens
# BJ [16] = test: growth inhibition of engineered Ras-driven BJ cells – cell-based, alamar blue fluorescence, cherrypicked samples, dose response (AID 2631); assay type: functional; settings: Homo sapiens;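 note: confirmatory dose-response assay in RAS-dependent BJ fibroblasts engineered with TERT, LT and ST, with cytotoxicity read by fluorescence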
# Vero [17] = test: cells; assay type: functional; settings: Chlorocebus sabaeus
# [18] = target: Luciferin 4-monooxygenase (Photinus pyralis, UniProt P08659); test: inhibition of purified Photinus pyralis luciferase – biochemical, luminescence, dose response (AID 1891)
# [19] = Luminescence Cell-Based Dose Confirmation HTS to Identify Inhibitors of Platelet Dense Granule Release. [Related pubchem assays: 1663 (Primary HTS), 1678 (Summary of Project)]; assay type: functional
# [20] = target: Ras and Rab interactor 1/Tyrosine-protein kinase ABL1 (Homo sapiens, UniProt P00519+Q13671); assay type: functional;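 note: biochemical TR-FRET dose-response test measuring inhibition of binding between Rin1 and Abl proteins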
# Ras and Rab interactor 1/Tyrosine-protein kinase ABL1, sequence (P00519 whole entry): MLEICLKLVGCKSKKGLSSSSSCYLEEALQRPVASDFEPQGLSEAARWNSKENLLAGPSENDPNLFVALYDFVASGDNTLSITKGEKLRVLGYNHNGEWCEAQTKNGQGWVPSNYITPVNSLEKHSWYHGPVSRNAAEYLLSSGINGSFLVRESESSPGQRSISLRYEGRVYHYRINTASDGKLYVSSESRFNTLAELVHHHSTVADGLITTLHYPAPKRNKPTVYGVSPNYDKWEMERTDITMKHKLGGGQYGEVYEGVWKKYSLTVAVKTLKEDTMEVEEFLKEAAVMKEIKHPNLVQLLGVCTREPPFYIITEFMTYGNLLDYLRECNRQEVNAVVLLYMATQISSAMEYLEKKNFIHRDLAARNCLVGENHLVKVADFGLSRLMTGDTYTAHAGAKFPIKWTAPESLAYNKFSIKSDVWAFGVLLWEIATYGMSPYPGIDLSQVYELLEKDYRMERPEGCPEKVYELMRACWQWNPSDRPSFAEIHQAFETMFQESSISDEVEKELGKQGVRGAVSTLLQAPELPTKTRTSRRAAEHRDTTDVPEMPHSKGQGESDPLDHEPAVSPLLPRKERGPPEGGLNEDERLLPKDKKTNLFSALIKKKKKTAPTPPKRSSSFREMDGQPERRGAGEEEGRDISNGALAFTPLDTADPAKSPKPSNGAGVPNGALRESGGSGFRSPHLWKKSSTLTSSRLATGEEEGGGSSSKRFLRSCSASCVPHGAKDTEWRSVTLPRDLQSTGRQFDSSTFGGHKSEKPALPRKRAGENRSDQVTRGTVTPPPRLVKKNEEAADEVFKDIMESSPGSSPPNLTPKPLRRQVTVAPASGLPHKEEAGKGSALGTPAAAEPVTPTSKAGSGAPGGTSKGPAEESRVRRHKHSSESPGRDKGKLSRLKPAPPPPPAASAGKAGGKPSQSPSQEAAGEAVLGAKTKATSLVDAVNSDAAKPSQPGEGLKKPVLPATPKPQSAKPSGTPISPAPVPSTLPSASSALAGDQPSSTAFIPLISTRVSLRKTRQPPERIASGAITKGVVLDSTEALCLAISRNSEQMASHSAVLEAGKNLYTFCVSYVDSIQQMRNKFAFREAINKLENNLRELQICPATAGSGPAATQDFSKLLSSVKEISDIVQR
# Ras and Rab interactor 1/Tyrosine-protein kinase ABL1, sequence (Q13671 whole entry): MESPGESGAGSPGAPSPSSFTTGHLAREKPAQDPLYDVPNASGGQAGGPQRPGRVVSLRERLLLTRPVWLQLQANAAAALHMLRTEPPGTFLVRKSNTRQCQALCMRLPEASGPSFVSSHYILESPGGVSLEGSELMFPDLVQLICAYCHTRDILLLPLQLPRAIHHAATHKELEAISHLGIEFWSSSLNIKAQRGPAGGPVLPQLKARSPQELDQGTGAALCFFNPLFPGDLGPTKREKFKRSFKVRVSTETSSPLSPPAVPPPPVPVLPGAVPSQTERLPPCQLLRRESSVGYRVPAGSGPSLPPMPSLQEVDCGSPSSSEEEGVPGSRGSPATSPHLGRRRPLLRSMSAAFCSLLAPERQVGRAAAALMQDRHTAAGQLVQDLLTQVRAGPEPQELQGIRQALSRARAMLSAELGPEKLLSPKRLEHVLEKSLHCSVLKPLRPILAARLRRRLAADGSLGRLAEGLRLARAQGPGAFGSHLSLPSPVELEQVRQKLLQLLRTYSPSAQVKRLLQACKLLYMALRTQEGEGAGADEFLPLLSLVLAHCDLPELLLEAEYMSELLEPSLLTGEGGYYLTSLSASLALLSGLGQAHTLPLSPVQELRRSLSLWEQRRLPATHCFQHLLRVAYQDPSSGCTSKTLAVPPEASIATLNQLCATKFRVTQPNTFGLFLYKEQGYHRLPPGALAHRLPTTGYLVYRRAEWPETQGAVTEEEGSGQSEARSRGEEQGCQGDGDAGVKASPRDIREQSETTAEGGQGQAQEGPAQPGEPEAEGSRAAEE
# Dual specificity protein kinase CLK1, sequence (P49759 whole entry): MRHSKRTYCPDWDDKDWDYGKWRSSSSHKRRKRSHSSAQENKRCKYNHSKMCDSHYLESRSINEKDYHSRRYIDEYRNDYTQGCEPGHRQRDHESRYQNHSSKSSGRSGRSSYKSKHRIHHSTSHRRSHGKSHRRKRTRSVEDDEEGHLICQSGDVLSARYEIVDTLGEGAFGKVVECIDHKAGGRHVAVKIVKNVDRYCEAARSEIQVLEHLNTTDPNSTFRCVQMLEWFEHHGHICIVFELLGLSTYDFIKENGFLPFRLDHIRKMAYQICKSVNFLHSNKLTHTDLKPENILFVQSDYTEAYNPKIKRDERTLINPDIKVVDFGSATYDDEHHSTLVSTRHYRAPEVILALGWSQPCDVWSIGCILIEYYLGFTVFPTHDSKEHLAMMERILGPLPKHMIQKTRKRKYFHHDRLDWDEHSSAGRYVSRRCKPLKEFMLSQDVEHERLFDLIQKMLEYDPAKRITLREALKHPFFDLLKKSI
# Beta-2 adrenergic receptor, sequence (P07550 whole entry): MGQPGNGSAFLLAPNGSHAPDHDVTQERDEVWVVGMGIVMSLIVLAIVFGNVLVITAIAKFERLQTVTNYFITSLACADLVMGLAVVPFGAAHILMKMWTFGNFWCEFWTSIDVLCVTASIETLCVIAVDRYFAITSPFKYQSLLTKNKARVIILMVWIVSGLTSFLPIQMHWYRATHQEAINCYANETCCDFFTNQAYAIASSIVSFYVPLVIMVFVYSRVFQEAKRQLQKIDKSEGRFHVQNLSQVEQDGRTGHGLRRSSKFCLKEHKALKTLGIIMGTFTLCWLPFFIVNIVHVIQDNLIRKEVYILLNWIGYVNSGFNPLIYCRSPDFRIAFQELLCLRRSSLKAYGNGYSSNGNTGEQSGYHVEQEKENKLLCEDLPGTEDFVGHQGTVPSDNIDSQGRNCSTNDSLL
# Luciferin 4-monooxygenase, sequence (P08659 whole entry): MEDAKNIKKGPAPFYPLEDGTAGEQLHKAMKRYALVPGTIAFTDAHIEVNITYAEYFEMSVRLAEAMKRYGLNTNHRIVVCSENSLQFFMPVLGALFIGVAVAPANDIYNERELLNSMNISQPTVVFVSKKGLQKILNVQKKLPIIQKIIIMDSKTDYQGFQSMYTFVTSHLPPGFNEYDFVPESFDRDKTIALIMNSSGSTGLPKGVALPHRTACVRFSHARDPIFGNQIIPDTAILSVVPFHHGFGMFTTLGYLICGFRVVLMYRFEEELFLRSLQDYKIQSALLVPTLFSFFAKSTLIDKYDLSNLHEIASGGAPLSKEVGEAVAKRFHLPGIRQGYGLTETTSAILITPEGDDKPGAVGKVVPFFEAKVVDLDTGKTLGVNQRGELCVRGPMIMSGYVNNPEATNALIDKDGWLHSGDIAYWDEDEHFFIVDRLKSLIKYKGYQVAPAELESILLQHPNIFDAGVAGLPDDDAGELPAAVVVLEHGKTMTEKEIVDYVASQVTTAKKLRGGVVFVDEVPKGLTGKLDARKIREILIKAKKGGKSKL
structure (smiles),measurement,setting,value
C=CCn1c(SCc2ccccc2Cl)nnc1-c1sc2nc(C)cc(C)c2c1N,EC50,[1],0.161 µM (active)
same,EC50,[2],> 60 µM (not active)
same,EC50,[3],0.0757 µM (active)
O=C(Nc1nc(-c2ccc3c(c2)OCCO3)cs1)c1ccco1,AC50,[4],6.45 µM (active)
same,AC50,[5],3.98 µM (active)
same,EC50,Streptokinase A,> 150 µM (not active)
same,EC50,Streptococcus,> 150 µM (not active)
same,EC50,[6],20.1 µM (active)
COc1ccc(N2C(=O)c3ccccc3NC23CCCCC3)cc1,AC50,HeLa,300 µM (active)
COc1ccccc1OCc1ccc(C(=O)Nc2ccccc2F)cc1,IC50,[7],> 99 µM (inactive)
same,IC50,Caspase-3,8.88 µM (active)
same,IC50,[8],> 99 µM (inactive)
CCOC(=O)c1c(NC(=O)c2cccc(N3C(=O)CCC3=O)c2)sc(C)c1C,AC50,CAAX prenyl protease 2 [9],31.5 µM (active)
same,AC50,CAAX prenyl protease 2 [10],> 100 µM (inactive)
CSc1ccc(/C=C/C(=O)OCC(=O)NC(C)C)cc1,AC50,CAAX prenyl protease 2 [9],35.8 µM (active)
Cc1nc(CNc2ncnc3ccc(-c4ccoc4)cc23)cs1,AC50,[5],0.0311 µM (active)
COc1cc(CNc2ccc(O)cc2)cc(Br)c1OCc1ccccc1F,CC50,Vero [11],> 40 µM (active)
N#Cc1ccc(NC(=O)c2cccs2)nc1,AC50,HeLa,248 µM (active)
CCN1CCN(Cc2ccc(NC(=O)c3ccc(C)c(NC(=O)N4CCNC4=O)c3)cc2C(F)(F)F)CC1,AC50,[4],8.71 µM (active)
same,AC50,[5],2.29 µM (active)
COc1ccc(/C=N\NC(=O)c2cccc(F)c2)cc1COc1ccccc1,EC50,BJ [12],31.5 µM (active)
same,EC50,BJ [13],5.12 µM (inconclusive)
same,EC50,BJ [14],0.575 µM (inconclusive)
same,EC50,[15],1.15 µM (active)
same,EC50,BJ [16],0.286 µM (active)
same,CC50,Vero [17],0.35 µM (active)
COc1cc(OC)nc(NC(=O)CSc2nnc(-c3ccccc3)n2C2CCCCC2)n1,EC50,[18],> 112 µM (not active)
same,EC50,[19],> 112 µM (not active)
same,EC50,[3],1.05 µM (active)
O=C(c1cccc(Cl)c1)N1CCC(C(=O)N2CCN(Cc3ccccc3)CC2)CC1,EC50,[3],5.89 µM (active)
c1ccc2oc(-c3ccc4[nH]cnc4c3)nc2c1,AC50,HeLa,69.6 µM (active)
CC(=O)Nc1ccc(NC(=O)C2CCN(C(=O)c3cccs3)CC2)cc1,IC50,[20],1.9 µM (active)
